The target of data set [1] is T1, CDK5/GST-p25 (Homo sapiens, UniProt Q00535).
T1 construct: The final construct, encoding for full-length human CDK5; made in house; host or cells: Sf21 insect cells (baculovirus co-infection)
Briefly: Inhibition of CDK5/GST-p25 kinase activity (ELISA with time-resolved fluorescence readout). In kind it is biochemical. Summed up: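 The substrate, GST-Rb(773-928), was immobilised on plates and phosphorylated for 20 min at 37 °C by 2 ng/ml CDK5/GST-p25 in HEPES pH 7.2 with 10 µM ATP and 10 mM MgCl2. Both proteins were human and co-expressed in insect cells. Ser-780 phosphorylation was read by europium time-resolved fluorescence and converted to IC50.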
For orientation: ELISA stands for enzyme-linked immunosorbent assay.

The target in data set [2] is T2, His6-GSK-3β (Homo sapiens, UniProt P49841).
T2 construct: made in house; host or cells: Sf21 insect cells (baculovirus)
T2 sequence (P49841 2-419): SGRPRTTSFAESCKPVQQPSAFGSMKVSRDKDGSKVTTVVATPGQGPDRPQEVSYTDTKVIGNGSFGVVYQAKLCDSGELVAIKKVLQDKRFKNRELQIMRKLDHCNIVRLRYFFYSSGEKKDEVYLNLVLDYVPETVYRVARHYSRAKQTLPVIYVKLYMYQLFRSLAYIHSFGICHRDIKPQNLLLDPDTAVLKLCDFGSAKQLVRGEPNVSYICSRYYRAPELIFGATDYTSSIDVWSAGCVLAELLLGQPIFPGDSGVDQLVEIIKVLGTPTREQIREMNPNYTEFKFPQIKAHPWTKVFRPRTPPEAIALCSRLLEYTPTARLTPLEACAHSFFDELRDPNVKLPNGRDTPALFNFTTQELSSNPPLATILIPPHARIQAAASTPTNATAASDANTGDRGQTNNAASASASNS
The data set is described as follows: Inhibition of His6-GSK-3β kinase activity (ELISA-based format, time-resolved fluorescence readout). The conditions noted are these: for IC50: class symbols, read-out: GSK3β IC50. In kind it is biochemical. Summed up: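 Plate-bound recombinant GST-Rb substrate was phosphorylated for 30 min at 37° C by baculovirus-expressed His6-GSK-3β (200 ng/ml) at 20 μM ATP, 10 mM MgCl2, 2.5% DMSO. Europium time-resolved fluorescence of anti-phospho-Ser780 Rb signal gave inhibition, fitted to IC50.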

Bounds are passed on as bounds.

What is called IC50 is the concentration needed to halve the response being measured. Usually melting point stands for the temperature of the solid-liquid transition. One may read the inhibition as the drop in the measured response relative to a control, in per cent. Read a low inhibition as a weak effect.

T1 sequence (Q00535 whole entry): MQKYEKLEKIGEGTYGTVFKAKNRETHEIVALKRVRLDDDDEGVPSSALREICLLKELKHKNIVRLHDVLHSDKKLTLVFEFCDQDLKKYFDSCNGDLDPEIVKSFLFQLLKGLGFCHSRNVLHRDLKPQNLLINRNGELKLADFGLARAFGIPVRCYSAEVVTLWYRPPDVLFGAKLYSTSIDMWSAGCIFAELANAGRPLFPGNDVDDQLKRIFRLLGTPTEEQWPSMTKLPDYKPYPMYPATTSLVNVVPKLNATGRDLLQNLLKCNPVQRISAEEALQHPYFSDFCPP
T1 sequence (Q15078 108-307 partner limits assumed): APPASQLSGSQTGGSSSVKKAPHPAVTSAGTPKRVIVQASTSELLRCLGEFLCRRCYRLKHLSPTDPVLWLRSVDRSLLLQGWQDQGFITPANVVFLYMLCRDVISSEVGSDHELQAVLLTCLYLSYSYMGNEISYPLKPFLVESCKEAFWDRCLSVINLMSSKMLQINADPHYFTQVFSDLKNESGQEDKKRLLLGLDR

With `N#Cc1ccc2c(c1)NC(=O)C2c1ncnc2nn(C3CCCC3)cc12` (stereo not drawn) [Example 38, 3-(2-Cyclopentyl-2H-pyrazolo [3,4-d]pyrimidin-4-yl)-2-oxo-2,3-dihydro-1H-indole-6-carbonitrile], the melting point was in the range of 340 to 344 °C. This molecule also gave an IC50 in data set [1] (class symbols) greater than 10000 nM. Further, in data set [2], the IC50 was greater than 10000 nM.

`O=C1Nc2ccc(C(F)(F)F)cc2C1c1ncnc2c1cnn2C1CCCCC1` (stereo not drawn) [Example 71, 3-(1-Cyclohexyl-1H-pyrazolo [3,4-d]pyrimidin-4-yl)-5-trifluoromethyl-1,3-dihydro-indol-2-one]: the melting point was greater than 300 °C. Moreover, the IC50 in data set [1] (class symbols) was greater than 10000 nM. For the same molecule, in data set [2], the IC50 was greater than 10000 nM.

`COCCn1cc2c(C3C(=O)Nc4ccc(Br)cc43)nc(NC[C@@H](C)O)nc2n1` (stereo partly drawn) [Example 231, 5-Bromo-3-[6-((R)-2-hydroxy-propylamino)-2-(2-methoxy-ethyl)-2H-pyrazolo[3,4-d]pyrimidin-4-yl]-1,3-dihydro-indol-2-one] registered a melting point greater than 300 °C. The molecule further had an IC50 in data set [1] (class symbols) of less than 300 nM. Besides, the IC50 in data set [2] was less than 300 nM.

`CCCn1ncc2c(C3C(=O)Nc4ccc(Cl)cc43)ncnc21` (stereo not drawn) [Example 95, 5-Chloro-3-(1-propyl-2H-pyrazolo[3,4-d]pyrimidin-4-yl)-1,3-dihydro-indol-2-one] had a melting point of 293 to 297 °C. Moreover, the IC50 in data set [1] (numeric bounds) was greater than 3000 nM. Also, the IC50 in data set [2] is greater than 10000 nM.

In turn, `O=C1Nc2ccc(Cl)cc2C1c1nc(NCCc2cccnc2)nc2nn(C3CCCC3)cc12` (stereo not drawn) [Example 279, 5-Chloro-3-[2-cyclopentyl-6-(2-pyridin-3-yl-ethylamino)-2H-pyrazolo[3,4-d]pyrimidin-4-yl]-1,3-dihydro-indol-2-one] registered a melting point of 277 to 281 °C. The IC50 in data set [1] (class symbols) fell in the range of 300 to 3000 nM. In data set [2], the IC50 is less than 300 nM.

`O=C1Nc2ccc(F)c(F)c2C1c1ncnc2nn(C3CCCC3)cc12` (stereo not drawn) [Example 42, 3-(2-Cyclopentyl-2H-pyrazolo[3,4-d]pyrimidin-4-yl)-4,5-difluoro-1,3-dihydro-indol-2-one] had a melting point of 280 to 284 °C. This molecule registered an IC50 in data set [1] (class symbols) of 300 to 3000 nM. In addition, in data set [2], the IC50 was 300 to 3000 nM.

`COCCNc1nc(C2C(=O)Nc3ccc(Cl)cc32)c2cn(CC(C)C)nc2n1` (stereo not drawn) [Example 272, 5-Chloro-3-[2-isobutyl-6-(2-methoxy-ethylamino)-2H-pyrazolo[3,4-d]pyrimidin-4-yl]-1,3-dihydro-indol-2-one] registered a melting point of 286 to 289 °C. Moreover, the IC50 in data set [1] (class symbols) was less than 300 nM. Also, the IC50 in data set [2] is less than 300 nM.

The molecule `CC(C)Cn1cc2c(C3C(=O)Nc4ccc(Br)cc43)nc(NCCCN(C)C)nc2n1` (stereo not drawn) [Example 269, 5-Bromo-3-[6-(3-dimethylamino-propylamino)-2-isobutyl-2H-pyrazolo [3,4-d]pyrimidin-4-yl]-1,3-dihydro-indol-2-one] registered a melting point of 250.5 to 254 °C. The molecule further came in with an IC50 in data set [1] (class symbols) of less than 300 nM. For the same molecule, the IC50 in data set [2] was less than 300 nM.

`CC(C)Cn1cc2c(C3C(=O)Nc4ccc(Br)cc43)nc(NCCN(C)C)nc2n1` (stereo not drawn) [Example 268, 5-Bromo-3-[6-(2-dimethylamino-ethylamino)-2-isobutyl-2H-pyrazolo[3,4-d]pyrimidin-4-yl]-1,3-dihydro-indol-2-one] had a melting point of 261 to 264.5 °C. In data set [1] (class symbols), this molecule returned an IC50 of less than 300 nM. The IC50 in data set [2] was less than 300 nM.

With `C[C@@H](O)CNc1nc(C2C(=O)Nc3ccc(Br)cc32)c2cn(C3CCCC3)nc2n1` (stereo partly drawn) [Example 373], the melting point is greater than 300 °C. Besides, at 10 µM the inhibition in data set [1] was 67%. For the same molecule, the IC50 in data set [2] was less than 300 nM.

As for `CCOCCn1cc2c(C3C(=O)Nc4ccc(Br)cc43)nc(NC[C@@H](C)O)nc2n1` (stereo partly drawn) [Example 239, 5-Bromo-3-[2-(2-ethoxy-ethyl)-6-((R)-2-hydroxy-propylamino)-2H-pyrazolo[3,4-d]pyrimidin-4-yl]-1,3-dihydro-indol-2-one], the melting point was in the range of 298 to 300 °C. Also, the IC50 in data set [1] (class symbols) was less than 300 nM. For the same molecule, in data set [2], the IC50 is less than 300 nM.

The molecule `O=C1Nc2ccccc2C1c1nc(Cl)nc2nn(C3CCCC3)cc12` (stereo not drawn) [Example 152, 3-(6-Chloro-2-cyclopentyl-2H-pyrazolo[3,4-d]pyrimidin-4-yl)-1,3-dihydro-indol-2-one] came in with a melting point of 270 to 273 °C. In addition, the IC50 in data set [1] (class symbols) was greater than 10000 nM. Also, the IC50 in data set [2] was greater than 10000 nM.

Molecule `O=C1Nc2ccc(C(F)(F)F)cc2C1c1ncnc2nn(C3CCCC3)cc12` (stereo not drawn) [Example 34, 3-(2-Cyclopentyl-2H-pyrazolo [3,4-d]pyrimidin-4-yl)-5-trifluoromethyl-1,3-dihydro-indol-2-one] yielded a melting point of 292 to 293 °C. The molecule also yielded an IC50 in data set [1] (class symbols) of less than 300 nM. Also, the concentration for half-maximal inhibition (IC50) in data set [2] is less than 300 nM.

With `O=C1Nc2ccc(Cl)cc2C1c1nc(NCCCN2CCOCC2)nc2nn(C3CCCC3)cc12` (stereo not drawn) [Example 278, 5-Chloro-3-[2-cyclopentyl-6-(3-morpholin-4-yl-propylamino)-2H-pyrazolo[3,4-d]pyrimidin-4-yl]-1,3-dihydro-indole-2-one], the melting point is 250 to 254.5 °C. In data set [1] (class symbols), this molecule yielded an IC50 of 300 to 3000 nM. The IC50 in data set [2] is less than 300 nM.

For the molecule `CNc1nc(C2C(=O)Nc3ccccc32)c2cn(C3CCCC3)nc2n1` (stereo not drawn) [Example 154, 3-(2-cyclopentyl-6-methylamino-2H-pyrazolo [3,4-d]pyrimidin-4-yl)-1,3-dihydro-indol-2-one], the melting point was greater than 300 °C. Besides, the inhibition at 10 µM in data set [1] amounted to 68%. In data set [2], the concentration for half-maximal inhibition (IC50) was in the range of 300 to 3000 nM.

For the molecule `CCOCCn1cc2c(C3C(=O)Nc4ccc(Cl)cc43)nc(NCCN(C)C)nc2n1` (stereo not drawn) [Example 216, 5-Chloro-3-[6-(2-dimethylamino-ethylamino)-2-(2-ethoxy-ethyl)-2H-pyrazolo[3,4-d]pyrimidin-4-yl]-1,3-dihydro-indol-2-one], the melting point is 293 to 295 °C. Besides, the IC50 in data set [1] (class symbols) was in the range of 300 to 3000 nM. For the same molecule, in data set [2], the IC50 fell in the range of 300 to 3000 nM.

As to `O=C1Nc2ccc(Cl)cc2C1c1ncnc2nn(C3CCCC3)cc12` (stereo not drawn) [Example 36, 5-Chloro-3-(2-Cyclopentyl-2H-pyrazolo [3,4-d]pyrimidin-4-yl)-2-oxo-1,3-dihydro-indol-2-one], the melting point was in the range of 290 to 292 °C. Besides, the IC50 in data set [1] (class symbols) is less than 300 nM. Besides, the IC50 in data set [2] was less than 300 nM.

Molecule `CCCn1cc2c(C3C(=O)Nc4ccc(Br)cc43)nc(NCCN(C)C)nc2n1` (stereo not drawn) [Example 197, 5-Bromo-3-[6-(2-dimethylamino-ethylamino)-2-propyl-2H-pyrazolo[3,4-d]pyrimidin-4-yl]-1,3-dihydro-indol-2-one] showed a melting point of 270 to 274 °C. The IC50 in data set [1] (class symbols) was less than 300 nM. The IC50 in data set [2] is less than 300 nM.

Molecule `CC(C)n1cc2c(C3C(=O)Nc4ccc(C#N)cc43)ncnc2n1` (stereo not drawn) [Example 382, 3-(2-Isopropyl-2H-pyrazolo[3,4-d]pyrimidin-4-yl)-2-oxo-2,3-dihydro-1H-indole-5-carbonitrile] yielded a melting point greater than 300 °C. This molecule also returned an IC50 in data set [1] (class symbols) of less than 300 nM. In data set [2], the IC50 lay in the range of 300 to 3000 nM.

In turn, `CC(C)CNc1nc(C2C(=O)Nc3ccc(C(F)(F)F)cc32)c2cn(C3CCCC3)nc2n1` (stereo not drawn) [Example 249, 3-(2-Cyclopentyl-6-isobutylamino-2H-pyrazolo[3,4-d]pyrimidin-4-yl)-5-trifluoromethyl-1,3-dihydro-indol-2-one] displayed a melting point of 282 to 285 °C. Moreover, the IC50 in data set [1] (class symbols) was greater than 10000 nM. Further, in data set [2] (@10 μM), the “GSK3β % @10 μM” value is listed as 52% @10 μM.

As to `N#Cc1ccc2c(c1)C(c1ncnc3c1cnn3C1CCCCC1)C(=O)N2` (stereo not drawn) [Example 68, 3-(1-Cyclohexyl-1H-pyrazolo [3,4-de]pyrimidin-4-yl)-2-oxo-2,3-dihydro-1H-indole-5-carbonitrile], the melting point is greater than 300 °C. For the same molecule, the IC50 in data set [1] (class symbols) was greater than 10000 nM. Moreover, in data set [2], the IC50 is greater than 10000 nM.

In turn, `C=CCn1cc2c(C3C(=O)Nc4ccc(C#N)cc43)ncnc2n1` (stereo not drawn) [Example 76, 3-(2-Allyl-2H-pyrazolo[3,4-d]pyrimidin-4-yl)-2-oxo-2,3-dihydro-1H-indole-5-carbonitrile] had a melting point greater than 300 °C. This molecule also showed an IC50 in data set [1] (class symbols) of less than 300 nM. The IC50 in data set [2] lay within 300 to 3000 nM.

In turn, `CC(C)CNc1nc(C2C(=O)Nc3ccc(C#N)cc32)c2cn(C3CCCC3)nc2n1` (stereo not drawn) [Example 165, 3-(2-cyclopentyl-6-isobutylamino-2H-pyrazolo [3,4-d]pyrimidin-4-yl)-2-oxo-2,3-dihydro-1H-indole-5-carbonitrile] gave a melting point of 297 to 298.5 °C. The molecule also had an IC50 in data set [1] (class symbols) of less than 300 nM. Further, the IC50 in data set [2] was less than 300 nM.

Take `Cn1cc2c(C3C(=O)Nc4ccc(Br)cc43)nc(NCCN)nc2n1` (stereo not drawn) [Example 303, 3-[6-(2-Amino-ethylamino)-2-methyl-2H-pyrazolo [3,4-d]pyrimidin-4-yl]-5-bromo-1,3-dihydro-indol-2-one]: the melting point fell in the range of 260 to 262 °C. For the same molecule, the IC50 in data set [1] (class symbols) is less than 300 nM. In data set [2], the IC50 was 300 to 3000 nM.

Take `Cn1ncc2c(C3C(=O)Nc4ccc(Cl)cc43)ncnc21` (stereo not drawn) [Example 86, 5-Chloro-3-(1-methyl-1H-pyrazolo[3,4-d]pyrimidin-4-yl)-1,3-dihydro-indol-2-one]: the melting point was greater than 320 °C. The molecule also yielded an IC50 in data set [1] (class symbols) of less than 300 nM. The IC50 in data set [2] is greater than 10000 nM.

Source of the values: patent publication US8354414B2, “Substituted bicyclic pyrimidines” (Cephalon, Inc, priority 2006, dated 2013).
